Measurements as given in ChEMBL document CHEMBL5303304, “EUbOPEN Chemogenomics Library - IncuCyte” (2023).

What was measured:
Assay type in all cases: toxicity, cell-based
HEK-293T = assay: Incucyte cell viability with HEK293T; details: human, 10 µM, compound concentration 10 uM
U2OS = assay: Incucyte cell viability with U2OS; details: human, 10 µM, compound concentration 10 uM
Fibroblast = assay: Incucyte cell viability with human fibroblast; details: 10 µM, compound concentration 10 uM
Note: unitless GR value; below 1 slowed growth and below 0 cell loss.

Row | SMILES | Growth Rate (HEK-293T; 0 h, replicate number 1) | Growth Rate (U2OS; 12 h, replicate number 1) | Growth Rate (U2OS; 18 h, replicate number 2) | Growth Rate (U2OS; 24 h, replicate number 1) | Growth Rate (U2OS; 24 h, replicate number 2) | Growth Rate (HEK-293T; 6 h, replicate number 1) | Growth Rate (HEK-293T; 12 h, replicate number 1) | Growth Rate (HEK-293T; 12 h, replicate number 2) | Growth Rate (HEK-293T; 18 h, replicate number 1) | Growth Rate (HEK-293T; 18 h, replicate number 2) | Growth Rate (HEK-293T; 24 h, replicate number 1) | Growth Rate (HEK-293T; 24 h, replicate number 2) | Growth Rate (U2OS; 0 h, replicate number 2) | Growth Rate (U2OS; 12 h, replicate number 2) | Growth Rate (Fibroblast; 18 h, replicate number 1) | Growth Rate (Fibroblast; 18 h, replicate number 2) | Growth Rate (Fibroblast; 24 h, replicate number 1) | Growth Rate (Fibroblast; 24 h, replicate number 2) | Growth Rate (HEK-293T; 0 h, replicate number 2) | Growth Rate (Fibroblast; 12 h, replicate number 2) | further results
1 | N#Cc1cccc(-c2c[nH]c3ncnc(N4CCOCC4)c23)c1 | -0.86 | 0.88 | 0.94 | 0.97 | 0.98 |  |  |  |  |  |  |  |  |  |  |  |  |  |  |  | Growth Rate (U2OS; 6 h, replicate number 1): 0.91; Growth Rate (U2OS; 18 h, replicate number 1): 0.31; Growth Rate (Fibroblast; 0 h, replicate number 1): -0.42; Growth Rate (Fibroblast; 0 h, replicate number 2): -0.76
2 | O=C(Nc1c[nH]nc1-c1nc2cc(CN3CCOCC3)ccc2[nH]1)NC1CC1 [AT-9283] |  | 0.31 | 0.14 | -0.18 | -0.09 | -0.72 | -0.57 | -0.59 | -0.46 | -0.43 | -0.38 | -0.3 | 0.73 | 0.78 | 0.66 | 0.81 | 0.09 | 0.43 |  |  | Growth Rate (HEK-293T; 6 h, replicate number 2): -0.8; Growth Rate (U2OS; 0 h, replicate number 1): -1; Growth Rate (U2OS; 18 h, replicate number 1): -0.05
3 | Clc1ccccc1C(c1ccccc1)(c1ccccc1)n1ccnc1 [CLOTRIMAZOLE] | 0.08 | 0.97 | 0.81 |  | 0.76 |  |  | 0.5 | 0.79 | 0.54 | 0.72 | 0.41 | 0.7 | 0.94 | 0.54 | 1 | 0.82 |  | -0.96 |  | Growth Rate (HEK-293T; 6 h, replicate number 2): 0.62; Growth Rate (U2OS; 6 h, replicate number 2): 0.77; Growth Rate (Fibroblast; 0 h, replicate number 1): 0.95; Growth Rate (Fibroblast; 0 h, replicate number 2): 0.29
4 | CC1(C)Cc2nc(C3CCCC3)c([C@@H](F)c3ccc(C(F)(F)F)cc3)c(C3CCCCC3)c2[C@@H](O)C1 | 0.94 |  | 0.82 | 0.87 |  | 0.88 |  |  | 0.88 | 0.91 | 0.83 | 0.89 | 0.96 | 0.54 | 0.51 | 0.82 | 0.38 | 0.95 | -0.11 | 0.89 | Growth Rate (U2OS; 6 h, replicate number 2): 0.48; Growth Rate (Fibroblast; 0 h, replicate number 1): -0.22; Growth Rate (Fibroblast; 0 h, replicate number 2): -0.59; Growth Rate (Fibroblast; 6 h, replicate number 1): 0.71; Growth Rate (Fibroblast; 12 h, replicate number 1): 0.46
5 | COc1ccccc1S(=O)(=O)Nc1ccc2c(c1)CN(C)C(=O)N2 | 0.51 | 0.83 |  |  |  |  |  |  |  | 0.98 |  | 0.9 | -0.75 |  | 0.37 | 0.7 | 0.79 |  | -0.37 | 0.42 | Growth Rate (U2OS; 0 h, replicate number 1): -0.66; Growth Rate (U2OS; 6 h, replicate number 1): 0.81; Growth Rate (U2OS; 6 h, replicate number 2): 0.5; Growth Rate (Fibroblast; 0 h, replicate number 2): 0.57; Growth Rate (Fibroblast; 6 h, replicate number 1): 0.3; Growth Rate (Fibroblast; 6 h, replicate number 2): -0.15; Growth Rate (Fibroblast; 12 h, replicate number 1): 0.4
6 | CCc1cnn2c(NCc3ccc[n+]([O-])c3)cc(N3CCCCC3CCO)nc12 (configuration not stated) | -0.01 | -0.08 | -0.08 | -0.23 |  | -0.39 | -0.26 | -0.66 | -0.2 | -0.53 | -0.14 | -0.41 | 0.91 | 0.11 | 0.16 | -0.04 | 0.25 | -0.14 |  | -0.13 | Growth Rate (HEK-293T; 6 h, replicate number 2): -0.72; Growth Rate (U2OS; 0 h, replicate number 1): -0.62; Growth Rate (U2OS; 6 h, replicate number 1): 0.19; Growth Rate (U2OS; 6 h, replicate number 2): 0.07; Growth Rate (U2OS; 18 h, replicate number 1): -0.15; Growth Rate (Fibroblast; 0 h, replicate number 1): -0.96; Growth Rate (Fibroblast; 0 h, replicate number 2): 0.67; Growth Rate (Fibroblast; 6 h, replicate number 1): 0.11; Growth Rate (Fibroblast; 6 h, replicate number 2): 0; Growth Rate (Fibroblast; 12 h, replicate number 1): 0.25
7 | Cc1nc(Nc2cnn(C3CCNCC3)c2)nc2c1N(C)C(=O)c1cc3ccccc3cc1N2C |  | -0.83 | 0.65 | 0.58 | 0.62 | 0.03 | 0.41 | 0.67 | 0.48 | 0.63 | 0.52 | 0.7 |  | 0.83 | -0.22 | 0.06 | -0.14 | 0.17 |  | 0.26 | Growth Rate (HEK-293T; 6 h, replicate number 2): 0.26; Growth Rate (U2OS; 6 h, replicate number 1): 0.19; Growth Rate (U2OS; 6 h, replicate number 2): 0.81; Growth Rate (U2OS; 18 h, replicate number 1): 0.36; Growth Rate (Fibroblast; 6 h, replicate number 1): -0.01; Growth Rate (Fibroblast; 6 h, replicate number 2): 0.56; Growth Rate (Fibroblast; 12 h, replicate number 1): -0.05
8 | CCCCC[C@H](O)/C=C/[C@H]1[C@H](O)CC(=O)[C@@H]1CCCCCCC(=O)O [ALPROSTADIL] | -0.3 | 0.94 | 0.76 | 0.93 | 0.92 | 0.47 | 0.82 | 0.97 |  | 0.98 |  |  | 0.57 | 0.76 |  | 0.79 |  | 0.9 | 0.55 | 0.37 | Growth Rate (U2OS; 6 h, replicate number 1): 0.87; Growth Rate (Fibroblast; 0 h, replicate number 1): -1
9 | Nc1ncc2c(n1)-c1c([nH]c3ccc(C4=CCOCC4)cc13)CCC2 | 0.56 |  |  | 0.76 |  | -0.33 | -0.13 | -0.09 | 0.18 | 0.36 | 0.37 | 0.41 | 0.72 | 0.98 | 0.73 | 0.96 | 0.68 | 0.71 | -0.64 | 0.71 | Growth Rate (HEK-293T; 6 h, replicate number 2): -0.1; Growth Rate (U2OS; 6 h, replicate number 1): 0.74; Growth Rate (U2OS; 18 h, replicate number 1): 0.96; Growth Rate (Fibroblast; 0 h, replicate number 2): -0.45; Growth Rate (Fibroblast; 12 h, replicate number 1): 0.69
10 | COc1cc(N2CCN(C)CC2)ccc1Nc1ncc2c(n1)N(C)c1ccccc1C(=O)N2CC(F)(F)F |  | 0.97 | 0.87 |  | 0.83 | -0.03 | 0.26 | 0.22 | 0.22 | 0.29 | 0.27 | 0.36 |  |  | 0.09 | 0.31 | -0.1 | 0.08 |  | 0.51 | Growth Rate (HEK-293T; 6 h, replicate number 2): 0; Growth Rate (U2OS; 6 h, replicate number 2): 0.9; Growth Rate (U2OS; 18 h, replicate number 1): 0.99; Growth Rate (Fibroblast; 6 h, replicate number 1): 0.44; Growth Rate (Fibroblast; 6 h, replicate number 2): 0.47; Growth Rate (Fibroblast; 12 h, replicate number 1): 0.43
11 | CC[C@@H](C(=O)OC)n1c(=O)c2ccccc2n(Cc2cn(C)c3cccc(C)c23)c1=O |  |  | 0.96 | 0.92 | 0.9 |  |  |  |  |  |  |  | 0.16 | 0.97 | 0.75 | 0.48 |  |  | -0.42 | 0.49 | Growth Rate (Fibroblast; 0 h, replicate number 1): -1; Growth Rate (Fibroblast; 6 h, replicate number 1): 0.75; Growth Rate (Fibroblast; 6 h, replicate number 2): -0.9; Growth Rate (Fibroblast; 12 h, replicate number 1): 1
12 | CP(C)(=O)c1ccc(CNC(=O)C2CCN(S(=O)(=O)c3cc(Cl)cc(Cl)c3)CC2)cc1 |  | 0.74 | 0.9 | 0.87 | 0.89 |  | 0.93 |  | 0.9 |  | 0.89 |  |  | 0.85 |  |  |  |  |  |  | Growth Rate (U2OS; 0 h, replicate number 1): 0.11; Growth Rate (U2OS; 6 h, replicate number 1): 0.37; Growth Rate (U2OS; 18 h, replicate number 1): 0.74; Growth Rate (Fibroblast; 0 h, replicate number 2): -0.94
13 | O=C(Cc1ccccc1[N+](=O)[O-])Nc1ccc(-c2ccc(C(O)(C(F)(F)F)C(F)(F)F)cc2F)cc1 | 0.09 |  | 0.73 |  | 0.66 | 0.35 | 0.73 | 0.64 | 0.7 | 0.6 | 0.78 | 0.74 |  | 0.85 | 0.13 | -0.04 | -0.02 | -0.14 | -0.97 | 0.28 | Growth Rate (HEK-293T; 6 h, replicate number 2): 0.13; Growth Rate (U2OS; 6 h, replicate number 2): 0.87; Growth Rate (Fibroblast; 6 h, replicate number 1): -0.02; Growth Rate (Fibroblast; 6 h, replicate number 2): -0.05; Growth Rate (Fibroblast; 12 h, replicate number 1): 0.45
14 | CC(N)C1CCC(C(=O)Nc2ccncc2)CC1 (configuration not stated) | -0.35 |  |  |  |  |  |  |  |  |  |  |  | -0.73 |  | -0.47 |  | 0.52 |  | 0.58 |  | Growth Rate (U2OS; 0 h, replicate number 1): 0.26; Growth Rate (Fibroblast; 0 h, replicate number 1): -0.76
